From PubChem BioAssay (NCI)
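The compound was tested at five concentrations on cells cultured in 96-well plates, with a 48-hour exposure period. GI50 marks 50% less growth. TGI denotes the concentration required for complete inhibition of growth.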

Assays:
Experiment in all cases: NCI anticancer screen, dose series, 48 h
DU-145 prostate = test system: DU-145 prostate
HCT-15 colon = test system: HCT-15 colon
MDA-N = test system: MDA-N
SNB-75 CNS = test system: SNB-75 CNS
OVCAR-3 ovarian = test system: OVCAR-3 ovarian
SF-268 CNS = test system: SF-268 CNS
SW-620 colon = test system: SW-620 colon
U251 CNS = test system: U251 CNS
NCI-H460 lung = test system: NCI-H460 lung
ACHN renal = test system: ACHN renal
CAKI-1 renal = test system: CAKI-1 renal
SK-MEL-5 melanoma = test system: SK-MEL-5 melanoma
HT29 colon = test system: HT29 colon
SF-539 CNS = test system: SF-539 CNS
HCC-2998 colon = test system: HCC-2998 colon
EKVX NSCLC = test system: EKVX NSCLC
CCRF-CEM leukemia = test system: CCRF-CEM leukemia
NCI/ADR-RES ovarian = test system: NCI/ADR-RES ovarian

SMILES | TGI (DU-145 prostate) | TGI (HCT-15 colon) | TGI (MDA-N) | TGI (SNB-75 CNS) | TGI (OVCAR-3 ovarian) | TGI (SF-268 CNS) | TGI (SW-620 colon) | TGI (U251 CNS) | TGI (NCI-H460 lung) | TGI (ACHN renal) | TGI (CAKI-1 renal) | TGI (SK-MEL-5 melanoma) | TGI (HT29 colon) | TGI (SF-539 CNS) | TGI (HCC-2998 colon) | TGI (EKVX NSCLC) | TGI (CCRF-CEM leukemia) | GI50 (DU-145 prostate) | GI50 (OVCAR-3 ovarian) | TGI (NCI/ADR-RES ovarian)
C=CCCCC1CCCNC1=S (centres undefined) | > 100 µM | > 100 µM | > 100 µM | > 100 µM | > 100 µM | > 100 µM | > 100 µM | > 100 µM | > 100 µM | > 100 µM | > 100 µM | > 100 µM | > 100 µM | > 100 µM | > 100 µM | > 100 µM | – | – | – | –
CC1=N[C@](C)(C2CC3C=CC2C3=O)COC1=O (some centres undefined) | > 100 µM | – | > 100 µM | > 100 µM | > 100 µM | > 100 µM | > 100 µM | > 100 µM | > 100 µM | > 100 µM | > 100 µM | > 100 µM | > 100 µM | > 100 µM | > 100 µM | > 100 µM | > 100 µM | – | – | –
C=CCNC(=O)NCCCC(NC(C)=O)C(=O)NCc1ccccc1 (centres undefined) | – | > 100 µM | – | > 100 µM | > 100 µM | > 100 µM | > 100 µM | > 100 µM | > 100 µM | > 100 µM | > 100 µM | > 100 µM | > 100 µM | > 100 µM | – | > 100 µM | > 100 µM | – | – | –
COc1ccc(-c2cc(=O)c3cc4c(cc3[nH]2)OCO4)cc1 | – | > 100 µM | – | > 100 µM | > 100 µM | > 100 µM | > 100 µM | > 100 µM | > 100 µM | > 100 µM | – | > 100 µM | > 100 µM | > 100 µM | > 100 µM | 41.3 µM | > 100 µM | – | – | –
CCOc1cc2c(cc1O)/C(=N/NS(=O)(=O)c1ccc(C)cc1)C[C@@H]1[C@@H]2CC[C@]2(C)[C@@H](O)CC[C@@H]12 | > 100 µM | > 100 µM | – | 67.7 µM | > 100 µM | > 100 µM | > 100 µM | > 100 µM | > 100 µM | 81.2 µM | > 100 µM | > 100 µM | > 100 µM | 65.6 µM | 15.1 µM | > 100 µM | > 100 µM | 14.9 µM | 3.18 µM | > 100 µM
C[n+]1cccc2ccc(OC(=O)c3ccccc3)cc21 | > 100 µM | > 100 µM | > 100 µM | > 100 µM | > 100 µM | > 100 µM | > 100 µM | – | – | > 100 µM | > 100 µM | > 100 µM | > 100 µM | > 100 µM | – | > 100 µM | – | – | – | > 100 µM
CCC(=O)N(O)C(C)(C)C | – | > 100 µM | – | > 100 µM | > 100 µM | > 100 µM | > 100 µM | > 100 µM | > 100 µM | > 100 µM | > 100 µM | > 100 µM | > 100 µM | > 100 µM | > 100 µM | – | > 100 µM | – | – | –
NC(CCCCNC(=O)CNC(=O)OCc1ccccc1)C(=O)NC(CCCCNC(=O)CNC(=O)OCc1ccccc1)C(=O)NC(CCCCNC(=O)CNC(=O)OCc1ccccc1)C(=O)NC(CCCCNC(=O)CNC(=O)OCc1ccccc1)C(=O)NC(CCCCNC(=O)CNC(=O)OCc1ccccc1)C(=O)NC(CCCCNC(=O)CNC(=O)OCc1ccccc1)C(=O)O (centres undefined) | > 75 µM | > 75 µM | – | > 75 µM | > 75 µM | > 75 µM | > 75 µM | > 75 µM | > 75 µM | > 75 µM | > 75 µM | > 75 µM | > 75 µM | – | > 75 µM | – | > 75 µM | – | – | –
Cc1ccc(S(=O)(=O)Nn2c(S)c(C#N)c(-c3ccc([N+](=O)[O-])cc3)c(C#N)c2=O)cc1 | – | 49.7 µM | 73.1 µM | > 100 µM | – | > 100 µM | 35.1 µM | 98 µM | > 100 µM | > 100 µM | > 100 µM | 29.5 µM | > 100 µM | 35.4 µM | > 100 µM | > 100 µM | 52.6 µM | – | – | > 100 µM
c1ccc2cc(CNCCOCCOCCNCc3ccc4ccccc4c3)ccc2c1 | 3.37 µM | 3.46 µM | 3.23 µM | 4.12 µM | 3.7 µM | 4.43 µM | 4.62 µM | 4.07 µM | 3.24 µM | 3.26 µM | 3.68 µM | 5.66 µM | 2.76 µM | 3.69 µM | 0.54 µM | 6.13 µM | 4.46 µM | – | – | –
CC(C)C12C=CC(C)(CC1)n1c(=O)c3cc4ccccc4cc3c(=O)n12 (centres undefined) | – | > 100 µM | – | > 100 µM | > 100 µM | > 100 µM | > 100 µM | > 100 µM | > 100 µM | > 100 µM | > 100 µM | > 100 µM | > 100 µM | > 100 µM | > 100 µM | > 100 µM | > 100 µM | – | – | –
C=C=C(Sc1ccccc1)C(C)(C)OC(C)=O | 90.2 µM | 46.9 µM | – | 49.8 µM | 31.1 µM | 27.7 µM | 33.7 µM | 31.6 µM | 46.8 µM | – | 90.2 µM | 29.3 µM | 37 µM | 29.8 µM | 43.1 µM | – | 58.7 µM | – | – | –
CS/C(C)=N/OC(=O)NCCCCNc1ccc(N=[N+]=[N-])cc1 | – | > 100 µM | – | > 100 µM | 62.9 µM | > 100 µM | > 100 µM | > 100 µM | > 100 µM | 97.2 µM | > 100 µM | 38.6 µM | > 100 µM | > 100 µM | 56.1 µM | > 100 µM | > 100 µM | – | – | –
CC(C)C/C=C/C1=NN(c2cccc(S(=O)(=O)O)c2)C2(C1)SCC(=O)N2c1nc2ccccc2s1 (centres undefined) | > 100 µM | > 100 µM | – | > 100 µM | – | > 100 µM | > 100 µM | > 100 µM | > 100 µM | > 100 µM | > 100 µM | > 100 µM | > 100 µM | > 100 µM | > 100 µM | > 100 µM | 64.4 µM | – | – | > 100 µM
